This is an account of results in patent US20210338647A1, “Combination of Acetylcholinesterase Inhibitor and 5-HT4 Receptor Agonist As Neuroprotective Agent In the Treatment of Neurodegenerative Diseases” (UNIVERSITE DE CAEN NORMANDIE, priority 2018, published 2021).

In experiment [1] the test system is rat primary hippocampal neurons injured with Aβ 1-42. The experiment in a line: Survival of MAP-2 neurons in primary culture of hippocampal neurons injured with Aβ 1-42. Particulars: for Survival: Aβ1-42 20 μM/2.5 μM, percentage of control, Example 3. Type of experiment: cell-based. As for the experimental part: Rat hippocampal neurons were cultured as described by Callizot et al. (2013) J. Neurosci. Res. 91706-716. Pregnant female rats of 17 days gestation (Rats Wistar; Janvier Labs France) were killed using a deep anesthesia with CO2 chamber followed by a cervical dislocation. Then, fetuses were removed from the uterus and immediately placed in ice-cold L15 Leibovitz medium with a 2% penicillin (10,000 U/ml) and streptomycin (10 mg/ml) solution (PS) and 1% bovine serum albumin (BSA). Hippocampal neurons were treated for 20 min at 37° C. with a trypsin-EDTA solution at a final concentration of 0.05% trypsin and 0.02% EDTA. The dissociation was stopped by adding Dulbecco's modified Eagle's medium (DMEM) with 4.5 g/l of glucose, containing DNAse I grade 11 (final concentration 0.5 mg/ml) and 10% fetal calf serum (FCS). Cells were mechanically dissociated by three forced passages through the tip of a 10-ml pipette and then centrifuged at 515×g for 10 min at 4° C. The supernatant was discarded, and the pellet was resuspended in a defined culture medium consisting of Neurobasal medium with a 2% solution of B27 supplement, 2 mmol/l of L-glutamine, 2% of PS solution, and 10 ng/ml of brain-derived neurotrophic factor (BDNF). Viable cells were counted in a Neubauer cytometer, using the trypan blue exclusion test. […] The medium was changed every 2 days.
The hippocampal neurons were exposed with Aβ solutions (see below) after 17 days of culture. The Aβ1-42 preparation was done following the procedure described by Callizot et al. (2013) J. Neurosci. Res. 91706-716. Briefly, Aβ1-42 peptide was dissolved in the defined culture medium mentioned above, at an initial concentration of 40 μM. This solution was gently agitated for 3 days at 37° C. in the dark and immediately used after being properly diluted in culture medium to the concentrations used (20 μM (plate 1) or 2.5 μM (plate 2) corresponding to 2 μM or 0.25 μM of oligomers (AβO) respectively). […]
The compound was preincubated one hour before […] application. The following conditions were assessed:
After permeabilization with 0.1% of saponin, cells were incubated for 2 h with:
a) chicken polyclonal antibody anti microtubule-associated-protein 2 (MAP-2), diluted at 1/1000 in PBS containing 1% fetal calf serum and 0.1% of saponin (this antibody allows the specific staining of neuronal cell bodies and neurites; and allow the study of neuronal cell death and neurite network).
For each condition, 30 pictures (representative of the whole well area) per well were taken using ImageXpress (Molecular Devices) at 20× magnification. All images were taken with the same acquisition parameters. Analyses were performed automatically by using Custom Module Editor (Molecular Devices).
Total number of neurons (neuron survival, number of MAP-2 positive neurons)
Rat hippocampal neurons were cultured as described by Callizot et al. (2013) J. Neurosci. Res. 91:706-716. Briefly, pregnant female rats of 17 days gestation (Rats Wistar; Janvier Labs France) were killed using a deep anesthesia with CO2 chamber and a cervical dislocation. Then, fetuses were removed from the uterus and immediately placed in ice-cold L15 Leibovitz medium with a 2% penicillin (10,000 U/ml) and streptomycin (10 mg/ml) solution (PS) and 1% bovine serum albumin (BSA). The hippocampi were treated for 20 min at 37° C. with a trypsin-EDTA solution at a final concentration of 0.05% trypsin and 0.02% EDTA.

Experiment [2] relates to 5XFAD mice. The experiment in a line: Novel object recognition test in chronically treated 5XFAD mice. The conditions noted are these: 5XFAD females; 1 mg/kg twice a week for 3 months; 24 h interval between training and test. Type of experiment: in vivo, mouse. As for the experimental part:
(§1) 5XFAD mice received chronic treatments with drugs or vehicle according to 2 different protocols. In each experiment, drugs or vehicle solution were administered i.p. twice a week (1 mg/kg). In “Protocol 1”, mice (n=6-7 mice per group) were treated with compounds for two months, from 2 to 4 months of age. In “Protocol 2”, mice (n=7) were treated with compounds for three months, from 1 month to 4 months of age. At the end of each protocol, mice were anesthetized with a mixture of 100 mg/kg ketamine and 10 mg/kg xylazine in saline solution and perfused transcardially with PBS. Brains were quickly isolated on ice, the olfactory bulbs and cerebellum removed and the two hemispheres divided. One hemisphere was frozen on dry ice and stored at −80° C. for biochemical analysis, while the other was post-fixed in 4% PFA for immunohistochemistry (IHC).
(§2) 28 female 5XFAD mice (C57BL/6J genetic background) were used in this study. Mice received vehicle or compounds (1 mg/kg) i.p., twice a week for three months, from 1 to 4 months of age.

For experiment [3], the system named is 5XFAD mice. The experiment in a line: Amyloid plaque number (thioflavin T staining) in brain sections of 5XFAD mice. Type of experiment: in vivo, mouse. Particulars: 1 mg/kg twice a week for 3 months, versus controls. As for the experimental part:
as §1
Thirty-micrometer-thick sections were cut using a vibratome (Microm HM 650V, Thermo Scientific, Saint Herblain, France) and stored in cryoprotectant medium at −20° C. […]
Images were acquired with an Axiolmager Z1 microscope (Carl Zeiss S.A.S., Marly le Roi, France). […] GFAP expression was quantified using Image J software and results are expressed as area fractions. […]

In experiment [4] the test system is 5XFAD mice. The experiment in a line: Astrogliosis (GFAP staining) in brain sections of 5XFAD mice. Type of experiment: in vivo, mouse. The conditions noted are these: 1 mg/kg twice a week for 3 months, versus controls. As for the experimental part:
as §1
Thirty-micrometer-thick sections were cut using a vibratome (Microm HM 650V, Thermo Scientific, Saint Herblain, France) and stored in cryoprotectant medium at −20° C. For the labeling of amyloid plaques, free-floating tissue sections of frontal cortex, hippocampus and entorhinal cortex (coordinates from the bregma: frontal cortex=1.98 mm, hippocampus=−1.94 mm, entorhinal cortex=−3.08 mm) were extensively washed in PBS and then incubated in blocking solution (PBS; 3% BSA; 0.1% Triton X-100) for 1 h. Sections were stained with Hoechst dye (1:1000, Life Technologies, Saint Aubin, France) for 15 minutes to detect cell nuclei and then with freshly prepared thioflavin T solution (#T3516-5G, Sigma-Aldrich) (final concentration: 0.01 mg/ml in blocking buffer) for 15 minutes. After washing in 70% ethanol for 5 minutes, samples were mounted on poly-lysine slides with coverslips. For GFAP (glial fibrillary acidic protein) staining, free-floating brain sections were blocked as before and incubated with polyclonal rabbit anti-GFAP (1:1000, Z0334, Dako, Les Ullis, France) at 4° C. overnight. After thioflavin T staining and washing with 70% ethanol, the secondary Alexafluor 594 goat anti-rabbit antibody (1:1000, A11012, Life Technologies) was added for 2 h. PBS washes and mounting were performed as described before.
Images were acquired with an Axiolmager Z1 microscope (Carl Zeiss S.A.S., Marly le Roi, France). Analysis of thioflavin T staining was performed blindly and data are presented as the mean number of particles per mm^2 in two to three tissue sections from the same brain area/animal (Image J software). GFAP expression was quantified using Image J software and results are expressed as area fractions.
as §2

In experiment [5] the test system is 5XFAD mice. The experiment in a line: Aβ42 concentration in cerebrospinal fluid of chronically treated 5XFAD mice. Type of experiment: in vivo, mouse. Particulars: 1 mg/kg twice a week for 3 months, versus controls. As for the experimental part:
as §1, §2

Marks after values point to notes of the source that are not given here.

Take `COc1cc2c(cc1OC)C(=O)C(CC1CCN(Cc3ccccc3)CC1)C2` (stereo not drawn) [Donepezil]: the “Lowest active dose in this model” value in experiment [1] (Aβ 1-42 injured hippocampal neurons, any parameter of Table 7) is 1 nM. The Survival is listed as 69% in experiment [1] (donepezil 100 pM); 75%* in experiment [1] (donepezil 1 nM); 86%* in experiment [1] (donepezil 10 nM); 91%* in experiment [1] (donepezil 50 nM); 90%* in experiment [1] (donepezil 100 nM); 86%* in experiment [1] (donepezil 500 nM). The Survival in experiment [1] (donepezil 1 μM) and in experiment [1] (donepezil 10 μM) was 85%* throughout.
On to `CCCCN1CCC(CCC(=O)c2cc(Cl)c(N)cc2OC)CC1` [RS67333, 1-(4-amino-5-chloro-2-methoxy-phenyl)-3-(1-butyl-4-piperidinyl)-1-propanone], for which, in the experiment with 5XFAD mice [2], the “Recognition memory: time exploring novel versus familiar object (NOR test)” value was “reverses cognitive impairment”. Also, the “Amyloid plaque number in hippocampus” value with 5XFAD mice [3] is on record as “not significantly different compared to controls”. Moreover, the “Lowest protective active dose: neuronal survival” value in experiment [1] (Aβ 1-42 injured hippocampal neurons, Example 3 step 1) is on record as 50 nM. In the experiment on 5XFAD mice [4], the “GFAP staining in frontal cortex” value is reported as “not significantly different compared to controls” and the “GFAP staining in hippocampus” value is listed as “not significantly different compared to controls”. For the same compound, the “Aβ42 concentration in cerebrospinal fluid (CSF)” value with 5XFAD mice [5] was “not significantly different compared to controls”.
